Experimental data from patent US6900194B1, “Use of substituted 4-biarylbutyric and 5-biarylpentanoic acid derivatives as matrix metalloprotease inhibitors for the treatment of respiratory diseases” (Bayer Aktiengesellschaft, priority 1998, dated 2005).

Molecular target: MMP-2 (Gelatinase A) (Homo sapiens, UniProt P08253)
Assay: biochemical

MMP-2 (Gelatinase A), sequence (P08253 110-660): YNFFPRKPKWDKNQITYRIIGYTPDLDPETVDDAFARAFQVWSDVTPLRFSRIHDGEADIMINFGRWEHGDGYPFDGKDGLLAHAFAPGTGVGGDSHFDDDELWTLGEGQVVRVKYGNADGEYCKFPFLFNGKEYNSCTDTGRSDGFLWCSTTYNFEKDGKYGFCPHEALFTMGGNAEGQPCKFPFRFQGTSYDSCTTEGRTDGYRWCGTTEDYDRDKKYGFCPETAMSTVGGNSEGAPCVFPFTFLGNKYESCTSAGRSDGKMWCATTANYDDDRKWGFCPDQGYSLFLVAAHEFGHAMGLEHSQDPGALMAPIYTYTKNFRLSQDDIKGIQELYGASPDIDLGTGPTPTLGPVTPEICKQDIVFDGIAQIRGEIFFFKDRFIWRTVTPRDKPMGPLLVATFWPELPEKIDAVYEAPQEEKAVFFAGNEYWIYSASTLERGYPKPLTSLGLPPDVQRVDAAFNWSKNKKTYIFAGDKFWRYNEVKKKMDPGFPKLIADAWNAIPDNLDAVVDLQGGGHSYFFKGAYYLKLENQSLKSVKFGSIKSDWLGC

Compound | Ki [nM] | IC50 [nM]
O=C(CC(CCN1C(=O)c2ccccc2C1=O)C(=O)O)c1ccc(-c2ccc(Cl)cc2)cc1 (single isomer, unassigned; (+)) [Example 4, (+)-4-(4′-Chloro[1,1′-biphenyl]4-yl)-2-[2-(1,3-dioxo-1,3-dihydro-2H-isoindol-2-yl)ethyl]-4-oxobutanoic acid] | 0.5 | –
CCOc1ccc(-c2ccc(C(=O)CC(CCN3C(=O)c4ccccc4C3=O)C(=O)O)cc2)cc1 (single isomer, unassigned; (+)) [Example 2, (+)-2-[2-(1,3-Dioxo-1,3-dihydro-2H-isoindol-2-yl)ethyl]-4-(4′-ethoxy[1,1′-biphenyl]-4-yl)-4-oxobutanoic acid] | – | 3.2
